Experimental data taken from patent US20220332701A1, “HETEROCYCLIC COMPOUNDS AS BCR-ABL INHIBITORS” (ASCENTAGE PHARMA (SUZHOU) CO., LTD., priority 2019, published 2022).

Columns and labels:
BaF3(T315I) = BaF3(T315I) (Homo sapiens, UniProt P00519, T315I, cells depend on it); assay: WST (CCK-8) anti-proliferation assay, BaF3 T315I cells; details: read-out: BaF3(T315I); anti-proliferative IC50, 72 h treatment, CCK-8, BaF3 T315I
Method: (§1) The anti-proliferative effect of representative Compounds of the Disclosure was determined by a water-soluble tetrazolium (WST)-based assay using Cell Counting Kit-8 (CCK-8). Cells were seeded in 96-well plates and treated with different concentrations of test articles for 72 h. Each treatment was tested in triplicates. Briefly, a series of 9 concentrations were chosen for each test article and added at 100 μl/well into a 96-well plate. Each concentration was tested in triplicates. 100 μl of diluent was added into 3-6 wells in the same plate for cell control group, and another set of 3-6 wells was used as a blank control.
(§2) In each well, 100 μl of cell suspension (containing optimal cell numbers, which creates approximately 100% confluence of cells in control wells based on by the absorbance (OD) value) was dispensed into the same 96-well plate except for the blank well. The plate was then cultured at 37° C. in an incubator in an atmosphere with 5% CO2 for 72 h. At the end of treatments, 20 μl/well of CCK-8 reagent was directly added to each wells. The plate was then incubated at 37° C. in an incubator in an atmosphere with 5% CO2 for 2-4 hour.
(§3) The cells viability was calculated using the mean OD value of triplicated wells following the equation below: (OD sample−OD blank)/(OD cell control−OD blank)×100 IC50 values were calculated with Graphpad Prism 6.0 software using nonlinear regression (curve fitting) type data analysis.

BaF3(WT) = BaF3(WT) (Homo sapiens, UniProt P00519); assay: WST (CCK-8) anti-proliferation assay, BaF3 WT cells; details: read-out: BaF3(WT); anti-proliferative IC50, 72 h treatment, CCK-8, BaF3 WT
Method: as §1, §2, §3

In the case of CC(C)N1c2c(cc(C(=O)Nc3ccc(OC(F)(F)Cl)cc3)cc2-c2ccn[nH]2)CC1CC(=O)N(C)C (stereo not shown) [VII-36, N-(4-(chlorodifluoromethoxy)phenyl)-2-(2-(dimethylamino)-2-oxoethyl)-1-isopropyl-7-(1H-pyrazol-5-yl)indoline-5-carboxamide], the GI50 (BaF3(T315I)) is reported as 1740 nM and the GI50 (BaF3(WT)) is reported as 231 nM.
Compound Cc1cn(C(C)C)c2c(-c3cncnc3)cc(C(=O)Nc3ccc(OC(F)(F)Cl)cc3)cc12 [XII-5, N-(4-(chlorodifluoromethoxy)phenyl)-1-isopropyl-3-methyl-7-(pyrimidin-5-yl)-1H-indole-5-carboxamide] has a GI50 (BaF3(T315I)) of 3180 nM and a GI50 (BaF3(WT)) of 103 nM.
With CC(C)N1CCCc2cc(C(=O)Nc3ccc(OC(F)(F)Cl)cc3)cc(-c3ccn[nH]3)c21 [IX-1, N-(4-(chlorodifluoromethoxy)phenyl)-1-isopropyl-8-(1H-pyrazol-5-yl)-1,2,3,4-tetrahydroquinoline-6-carboxamide] the GI50 (BaF3(T315I)) was 1050 nM and the GI50 (BaF3(WT)) was 235 nM.
CCC1c2cc(C(=O)Nc3ccc(OC(F)(F)Cl)cc3)cc(-c3ccn[nH]3)c2N(C(C)C)C1CO (stereo not shown) [VII-20, N-(4-(chlorodifluoromethoxy)phenyl)-3-ethyl-2-(hydroxymethyl)-1-isopropyl-7-(1H-pyrazol-5-yl)indoline-5-carboxamide] showed a GI50 (BaF3(T315I)) of 2180 nM and a GI50 (BaF3(WT)) of 165 nM.
Compound CC(=O)N(C)CC1Cc2cc(C(=O)Nc3ccc(OC(F)(F)Cl)cc3)cc(-c3ccn[nH]3)c2N1C(C)C (stereo not shown) [VII-18, N-(4-(chlorodifluoromethoxy)phenyl)-1-isopropyl-2-((N-methylacetamido)methyl)-7-(1H-pyrazol-5-yl)indoline-5-carboxamide] has a GI50 (BaF3(T315I)) of 484 nM and a GI50 (BaF3(WT)) of 124 nM.
With CC(C)N1c2c(cc(C(=O)Nc3ccc(OC(F)(F)Cl)cc3)cc2-c2cncnc2)CC1C(=O)O (stereo not shown) [VII-21, 5-((4-(chlorodifluoromethoxy)phenyl)carbamoyl)-1-isopropyl-7-(pyrimidin-5-yl)indoline-2-carboxylic acid] the GI50 (BaF3(T315I)) was 1610 nM and the GI50 (BaF3(WT)) was 158 nM.
Work on Cc1cn(C(C)C)c2c(-c3ccn[nH]3)cc(C(=O)Nc3ccc(OC(F)(F)Cl)cc3)cc12 [XII-6, N-(4-(chlorodifluoromethoxy)phenyl)-1-isopropyl-3-methyl-7-(1H-pyrazol-5-yl)-1H-indole-5-carboxamide] yielded a GI50 (BaF3(T315I)) of 511 nM and a GI50 (BaF3(WT)) of 22 nM.
With CC1(C)c2c(cc(C(=O)Nc3ccc(OC(F)(F)Cl)cc3)cc2-c2ccn[nH]2)C(=O)N1CCN1CC[C@@H](O)C1 [IV-8, (R)—N-(4-(chlorodifluoromethoxy)phenyl)-2-(2-(3-hydroxypyrrolidin-1-yl)ethyl)-1,1-dimethyl-3-oxo-7-(1H-pyrazol-5-yl)isoindoline-5-carboxamide] the GI50 (BaF3(T315I)) was 6020 nM and the GI50 (BaF3(WT)) was 100 nM.
CC(C)N1CCc2cc(C(=O)Nc3ccc(OC(F)(F)Cl)cc3)cc(-c3ccn[nH]3)c21 [VII-1, N-(4-(chlorodifluoromethoxy)phenyl)-1-isopropyl-7-(1H-pyrazol-5-yl)indoline-5-carboxamide] gave a GI50 (BaF3(T315I)) of 91 nM and a GI50 (BaF3(WT)) of 26 nM.
With CC1(C)CN(S(C)(=O)=O)c2cc(C(=O)Nc3ccc(OC(F)(F)Cl)cc3)cc(-c3ccn[nH]3)c21 [III-5, N-(4-(chlorodifluoromethoxy)phenyl)-3,3-dimethyl-1-(methylsulfonyl)-4-(1H-pyrazol-5-yl)indoline-6-carboxamide] the GI50 (BaF3(T315I)) was 418 nM and the GI50 (BaF3(WT)) was 61 nM.
Work on CC(C)N1c2c(cc(C(=O)Nc3ccc(OC(F)(F)Cl)cc3)cc2-c2cncnc2)CC1C(=O)N1CC(O)C1 (stereo not shown) [VII-14, N-(4-(chlorodifluoromethoxy)phenyl)-2-(3-hydroxyazetidine-1-carbonyl)-1-isopropyl-7-(pyrimidin-5-yl)indoline-5-carboxamide] yielded a GI50 (BaF3(T315I)) of 660 nM and a GI50 (BaF3(WT)) of 56 nM.
O=C(Nc1ccc(OC(F)(F)Cl)cc1)c1cc2c(c(-c3cc[nH]n3)c1)C1(CCC(O)C1)C(=O)N2 (stereo not shown) [V-5, N-(4-(chlorodifluoromethoxy)phenyl)-3-hydroxy-2′-oxo-4′-(1H-pyrazol-5-yl)spiro[cyclopentane-1,3′-indoline]-6′-carboxamide] was tested, and the GI50 (BaF3(T315I)) was 335 nM and the GI50 (BaF3(WT)) was 144 nM.
In the case of Cc1ccc(-c2cc(C(=O)Nc3ccc(OC(F)(F)Cl)cc3)cc3c2C(C)(C)N(C)C3=O)s1 [IV-3, N-(4-(chlorodifluoromethoxy)phenyl)-1,1,2-trimethyl-7-(5-methylthiophen-2-yl)-3-oxoisoindoline-5-carboxamide], the GI50 (BaF3(T315I)) is reported as 2380 nM and the GI50 (BaF3(WT)) is reported as 132 nM.
Work on CC(C)N1c2c(cc(C(=O)Nc3ccc(OC(F)(F)Cl)cc3)cc2-c2ccn[nH]2)CC1C(=O)N1CC[C@@H](O)C1 (stereo partly drawn) [VII-29, N-(4-(chlorodifluoromethoxy)phenyl)-2-((R)-3-hydroxypyrrolidine-1-carbonyl)-1-isopropyl-7-(1H-pyrazol-5-yl)indoline-5-carboxamide] yielded a GI50 (BaF3(T315I)) of 940 nM and a GI50 (BaF3(WT)) of 113 nM.
CN1CCc2cc(C(=O)Nc3ccc(SC(F)(F)F)cc3)cc(-c3ccn[nH]3)c21 [VII-44, 1-methyl-7-(1H-pyrazol-5-yl)-N-(4-((trifluoromethyl)thio)phenyl)indoline-5-carboxamide] showed a GI50 (BaF3(T315I)) of 666 nM and a GI50 (BaF3(WT)) of 66 nM.
With CC(C)N1CCOc2cc(C(=O)Nc3ccc(OC(F)(F)Cl)cc3)cc(-c3ccn[nH]3)c21 [IX-3, N-(4-(chlorodifluoromethoxy)phenyl)-4-isopropyl-5-(1H-pyrazol-5-yl)-3,4-dihydro-2H-benzo[b][1,4] oxazine-7-carboxamide] the GI50 (BaF3(T315I)) was 535 nM and the GI50 (BaF3(WT)) was 80 nM.
In the case of CN(C)CCN1C(=O)C(C)(C)c2c(-c3ccn[nH]3)cc(C(=O)Nc3ccc(OC(F)(F)Cl)cc3)cc21 [V-7, N-(4-(chlorodifluoromethoxy)phenyl)-1-(2-(dimethylamino)ethyl)-3,3-dimethyl-2-oxo-4-(1H-pyrazol-5-yl)indoline-6-carboxamide], the GI50 (BaF3(T315I)) is reported as 1540 nM and the GI50 (BaF3(WT)) is reported as 324 nM.
With CC1(C)c2c(cc(C(=O)Nc3ccc(OC(F)(F)Cl)cc3)cc2-c2ccn[nH]2)C(=O)N1CCN1CCS(=O)(=O)CC1 [IV-7, N-(4-(chlorodifluoromethoxy)phenyl)-2-(2-(1,1-dioxidothiomorpholino)ethyl)-1,1-dimethyl-3-oxo-7-(1H-pyrazol-5-yl)isoindoline-5-carboxamide] the GI50 (BaF3(T315I)) was 1750 nM and the GI50 (BaF3(WT)) was 364 nM.
O=C(Nc1ccc(OC(F)(F)Cl)cc1)c1cc2c(c(-c3ccn[nH]3)c1)N(C1CCCC1)CC2 [VII-2, N-(4-(chlorodifluoromethoxy)phenyl)-1-cyclopentyl-7-(1H-pyrazol-5-yl) indoline-5-carboxamide] was tested, and the GI50 (BaF3(T315I)) was 272 nM and the GI50 (BaF3(WT)) was 29 nM.
CC(C)N1c2c(cc(C(=O)Nc3ccc(OC(F)(F)Cl)cc3)cc2-c2ccn[nH]2)CC1CC(=O)N1CCOCC1 (stereo not shown) [VII-35, N-(4-(chlorodifluoromethoxy)phenyl)-1-isopropyl-2-(2-morpholino-2-oxoethyl)-7-(1H-pyrazol-5-yl)indoline-5-carboxamide] gave a GI50 (BaF3(T315I)) of 1190 nM and a GI50 (BaF3(WT)) of 173 nM.
Compound CN1CCCc2cc(C(=O)Nc3ccc(OC(F)(F)Cl)cc3)cc(-c3ccn[nH]3)c21 [IX-2, N-(4-(chlorodifluoromethoxy)phenyl)-1-methyl-8-(1H-pyrazol-5-yl)-1,2,3,4-tetrahydroquinoline-6-carboxamide] has a GI50 (BaF3(T315I)) of 332 nM and a GI50 (BaF3(WT)) of 162 nM.
With CC(C)N1C(=O)C(C)(C)c2cc(C(=O)Nc3ccc(OC(F)(F)Cl)cc3)cc(-c3ccn[nH]3)c21 [VIII-3, N-(4-(chlorodifluoromethoxy)phenyl)-1-isopropyl-3,3-dimethyl-2-oxo-7-(1H-pyrazol-5-yl)indoline-5-carboxamide] the GI50 (BaF3(T315I)) was 1010 nM and the GI50 (BaF3(WT)) was 313 nM.
CN1C(=O)c2cc(C(=O)Nc3ccc(OC(F)(F)Cl)cc3)cc(-c3cccnc3)c2C1(C)C [IV-9, N-(4-(chlorodifluoromethoxy)phenyl)-1,1,2-trimethyl-3-oxo-7-(pyridin-3-yl)isoindoline-5-carboxamide] showed a GI50 (BaF3(T315I)) of 107 nM and a GI50 (BaF3(WT)) of 77 nM.
Compound CC(C)N1c2c(cc(C(=O)Nc3ccc(OC(F)(F)Cl)cc3)cc2-c2ccn[nH]2)CC1C(=O)N(C)C (stereo not shown) [VII-26, N5-(4-(chlorodifluoromethoxy)phenyl)-1-isopropyl-N2,N2-dimethyl-7-(1H-pyrazol-5-yl)indoline-2,5-dicarboxamide] has a GI50 (BaF3(T315I)) of 199 nM and a GI50 (BaF3(WT)) of 39 nM.
For O=C(Nc1ccc(OC(F)(F)Cl)cc1)c1cc2c(c(-c3ccn[nH]3)c1)N(C1CCC1)CC2 [VII-8, N-(4-(chlorodifluoromethoxy)phenyl)-1-cyclobutyl-7-(1H-pyrazol-5-yl) indoline-5-carboxamide], the GI50 (BaF3(T315I)) was 468 nM and the GI50 (BaF3(WT)) was 23 nM.
Work on O=C(Nc1ccc(OC(F)(F)Cl)cc1)c1cc2c(c(-c3ccn[nH]3)c1)C1(CCCCC1)C(=O)N2 [V-11, N-(4-(chlorodifluoromethoxy)phenyl)-2′-oxo-4′-(1H-pyrazol-5-yl)spiro[cyclohexane-1,3′-indoline]-6′-carboxamide] yielded a GI50 (BaF3(T315I)) of 40 nM and a GI50 (BaF3(WT)) of 8 nM.
Compound CS(=O)(=O)N1CCc2cc(C(=O)Nc3ccc(OC(F)(F)Cl)cc3)cc(-c3ccn[nH]3)c21 [VII-9, N-(4-(chlorodifluoromethoxy)phenyl)-1-(methylsulfonyl)-7-(1H-pyrazol-5-yl) indoline-5-carboxamide] has a GI50 (BaF3(T315I)) of 4960 nM and a GI50 (BaF3(WT)) of 403 nM.
CN1CCN(CCN2C(=O)c3cc(C(=O)Nc4ccc(OC(F)(F)Cl)cc4)cc(-c4ccn[nH]4)c3C2(C)C)CC1 [IV-6, N-(4-(chlorodifluoromethoxy)phenyl)-1,1-dimethyl-2-(2-(4-methylpiperazin-1-yl)ethyl)-3-oxo-7-(1H-pyrazol-5-yl)isoindoline-5-carboxamide] showed a GI50 (BaF3(T315I)) of 1570 nM and a GI50 (BaF3(WT)) of 501 nM.
In the case of CNCC1CN(C(C)C)c2c(-c3ccn[nH]3)cc(C(=O)Nc3ccc(OC(F)(F)Cl)cc3)cc21 (stereo not shown) [VII-28, N-(4-(chlorodifluoromethoxy)phenyl)-1-isopropyl-3-((methylamino)methyl)-7-(1H-pyrazol-5-yl)indoline-5-carboxamide], the GI50 (BaF3(T315I)) is reported as 575 nM and the GI50 (BaF3(WT)) is reported as 132 nM.
